For 15 compounds, IC50 results are on record in patent US20230271959A1, “HETEROCYCLIC COMPOUND AS BCL-2 INHIBITOR” (Beijing Innocare Pharma Tech Co., Ltd., priority 2020, published 2023).

The target in assay [1] is T1, human recombinant Bcl-XL protein (Homo sapiens, UniProt Q07817).
T1 construct: purchased Beijing Yiqiao Shenzhou Biotechnology Co., Ltd. 10455-H0SE
In words: Fluorescence polarization test for inhibition of BCL-XL binding to FITC-BIM. The settings on record: 10 nM BCL-XL, 10 nM FITC-BIM, read-out: FP BCL-XL IC50. In a few lines: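 Human recombinant Bcl-XL (10 nM diluted stock) preincubated with compound 15 min at RT in PBS pH 7.4, 1 mM DTT, then FITC-BIM peptide (10 nM diluted stock) added for 30 min in dark. FP read at ex 480/em 535 nm; no-protein wells = 100% inhibition; IC50 from 8-point 4-fold dilution curve fit.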

For assay [2], the system named is RS4;11 cells (acute lymphoblastic leukemia cells). In words: RS4;11 cell proliferation, CellTilter-Glo luminescence cell viability assay. The settings on record: Homo sapiens, RS4-11; CTG readout after 48 hours. It counts as cell-based. In a few lines: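 RS4;11 cells plated overnight were exposed for 48 h at 37 °C, 5% CO2 to an 8-point, 4-fold compound dilution series; the vehicle control contained 0.2% DMSO. Viability was read by CellTiter-Glo luminescence. Percent inhibition was referenced to no-cell and DMSO controls, and IC50 came from a four-parameter sigmoidal fit.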

The target in assay [3] is T2, human recombinant Bcl-2 protein (Homo sapiens, UniProt P10415).
T2 construct: purchased Beijing Yigiao Shenzhou Biotechnology Co., Ltd. 10195-HOSE
T2 sequence (P10415 whole entry): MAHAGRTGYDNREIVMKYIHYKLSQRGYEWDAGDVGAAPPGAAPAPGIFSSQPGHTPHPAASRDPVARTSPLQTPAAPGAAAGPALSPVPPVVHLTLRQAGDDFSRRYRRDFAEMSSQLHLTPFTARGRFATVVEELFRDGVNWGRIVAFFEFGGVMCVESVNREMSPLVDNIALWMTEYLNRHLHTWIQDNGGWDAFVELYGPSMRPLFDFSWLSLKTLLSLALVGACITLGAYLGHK
In words: Fluorescence polarization test for inhibition of BCL-2 binding to FITC-BIM. The settings on record: 5 nM BCL-2, 5 nM FITC-BIM, read-out: FP BCL-2 IC50. In a few lines:
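FP competition: compound preincubated 15 min with recombinant human Bcl-2 (diluted to 5 nM), then FITC-BIM (diluted to 5 nM) added for 30 min at room temperature in PBS pH 7.4 with 1 mM DTT. Polarization read at 480/535 nm; IC50 from 8-point 4-fold series fitted by four-parameter equation.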

pIC50: −log10 of the molar value.

T1 sequence (Q07817 whole entry): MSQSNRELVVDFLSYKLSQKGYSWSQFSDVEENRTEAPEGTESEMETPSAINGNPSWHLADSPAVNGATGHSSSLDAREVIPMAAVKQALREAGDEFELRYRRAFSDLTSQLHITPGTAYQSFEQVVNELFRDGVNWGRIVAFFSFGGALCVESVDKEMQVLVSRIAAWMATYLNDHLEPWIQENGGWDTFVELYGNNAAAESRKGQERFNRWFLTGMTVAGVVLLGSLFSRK

Turning to `C[C@H]1CN(CC2=C(c3ccc(Cl)cc3)CC(C)(C)CC2)CCN1c1ccc(C(=O)NS(=O)(=O)c2ccc(NCC3CCOCC3)c([N+](=O)[O-])c2)c(Oc2cnc3[nH]ccc3c2)c1` [Example 13, (S)-2-((1H-pyrrolo[2,3-b]pyridin-5-yl)oxy)-4-(4-((4′-chloro-5,5-dimethyl-3,4,5,6-tetrahydro-[1,1′-biphenyl]-2-yl)methyl)-2-methylpiperazin-1-yl)-N-((3-nitro-4-(((tetrahydro-2H-pyran-4-yl)methyl)amino)phenyl)sulfonyl)benzamide], the pIC50 in assay [1] was below 6.00; in assay [2], below 6.30; in assay [3] it was below 7.00.

For `C[C@@H]1CCC(CN2CCN(c3ccc(C(=O)NS(=O)(=O)c4ccc(NC[C@H]5COCCO5)c([N+](=O)[O-])c4)c(Oc4cnc5[nH]ccc5c4)c3)[C@H](C)C2)=C(c2ccc(Cl)cc2)C1` [Example 24], the values for the pIC50 in assay [1], in assay [2] and in assay [3] were below 6.00, 7.62 and 8.20, respectively.

Turning to `C[C@@H]1CN(c2ccc(C(=O)NS(=O)(=O)c3cc(F)c(NCC4CCOCC4)c([N+](=O)[O-])c3)c(Oc3cnc4[nH]ccc4c3)c2)CCN1CC1=C(c2ccc(Cl)cc2)CCC(C)(C)C1` [Example 28, (R)-2-((1H-pyrrolo[2,3-b]pyridin-5-yl)oxy)-4-(4-((4′-chloro-4,4-dimethyl-3,4,5,6-tetrahydro-[1,1′-biphenyl]-2-yl)methyl)-3-methylpiperazin-1-yl)-N-((3-fluoro-5-nitro-4--(((tetrahydro-2H-pyran-4-yl)methyl)amino)phenyl)sulfonyl)benzamide], the pIC50 in assay [1] was below 6.00; in assay [2] it was 8.18; in assay [3], 8.86.

In the case of `C[C@@H]1CCC(CN2CCN(c3ccc(C(=O)NS(=O)(=O)c4cc(F)c(NC[C@H]5COCCO5)c([N+](=O)[O-])c4)c(Oc4cnc5[nH]ccc5c4)c3)C[C@H]2C)=C(c2ccc(Cl)cc2)C1` [Example 22], the pIC50 in assay [1] is below 6.00; in assay [2], 8.39; in assay [3], 8.83.

In the case of `C[C@@H]1CN(c2ccc(C(=O)NS(=O)(=O)c3ccc(NC[C@H]4COCCO4)c([N+](=O)[O-])c3)c(Oc3cnc4[nH]ccc4c3)c2)CCN1CC1=C(c2ccc(Cl)cc2)CC(C)(C)C(C)(C)C1` [Example 42, N-((4-((((S)-1,4-dioxan-2-yl)methyl)amino)-3-nitrophenyl)sulfonyl)-2-((1H-pyrrolo[2,3-b]pyridin-5-yl)oxy)-4-((R)-4-((4′-chloro-4,4,5,5-tetramethyl-3,4,5,6-tetrahydro-[1,1′-biphenyl]-2-yl)methyl)-3-methylpiperazin-1-yl) benzamide], the results for the pIC50 in assay [1], in assay [2] and in assay [3] were below 6.00, 8.00 and 8.82, respectively.

As for `C[C@H]1CCC(CN2CCN(c3ccc(C(=O)NS(=O)(=O)c4ccc(NC[C@H]5COCCO5)c([N+](=O)[O-])c4)c(Oc4cnc5[nH]ccc5c4)c3)C[C@H]2C)=C(c2ccc(Cl)cc2)C1` [Example 16, N-((4-((((S)-1,4-dioxan-2-yl)methyl)amino)-3-nitrophenyl)sulfonyl)-2-((1H-pyrrolo[2,3-b]pyridin-5-yl)oxy)-4-((R)-4-(((S)-4′-chloro-5-methyl-3,4,5,6-tetrahydro-[1,1′-biphenyl]-2-yl)methyl)-3-methylpiperazin-1-yl) benzamide], the pIC50 was below 6.00 in assay [1], 8.06 in assay [2] and 8.47 in assay [3].

In the case of `C[C@@H]1CN(c2ccc(C(=O)NS(=O)(=O)c3cc(F)c(NCC4CCN(C5COC5)CC4)c([N+](=O)[O-])c3)c(Oc3cnc4[nH]ccc4c3)c2)CCN1CC1=C(c2ccc(Cl)cc2)CC(C)(C)CC1` [Example 4, (R)-2-((1H-pyrrolo[2,3-b]pyridin-5-yl)oxy)-4-(4-((4′-chloro-5,5-dimethyl-3,4,5,6-tetrahydro-[1,1′-biphenyl]-2-yl)methyl)-3-methylpiperazin-1-yl)-N-((3-fluoro-5-nitro-4-(((1-(3-oxetanyl)piperidin-4-yl)methyl)amino)phenyl)sulfonyl) benzamide], the values for the pIC50 in assay [1], in assay [2] and in assay [3] were 6.13, 8.24 and 8.64, respectively.

`C[C@@H]1CN(CC2=C(c3ccc(Cl)cc3)CC(C)(C)CC2)CCN1c1ccc(C(=O)NS(=O)(=O)c2cc(F)c(NCC3CCOCC3)c([N+](=O)[O-])c2)c(Oc2cnc3[nH]ccc3c2)c1` [Example 11]: the pIC50 in assay [1] is below 6.00; in assay [2], 7.38; in assay [3], 7.89.

Regarding `C[C@H]1CN(c2ccc(C(=O)NS(=O)(=O)c3cc(F)c(NC[C@H]4COCCO4)c([N+](=O)[O-])c3)c(Oc3cnc4[nH]ccc4c3)c2)CCN1CC1=C(c2ccc(Cl)cc2)CC(C)(C)CC1` [Example 47, N-((4-((((S)-1,4-dioxan-2-yl)methyl)amino)-3-fluoro-5-nitrophenyl)sulfonyl)-2-((1H-pyrrolo[2,3-b]pyridin-5-yl)oxy)-4-((S)-4-((4′-chloro-5,5-dimethyl-3,4,5,6-tetrahydro-[1,1′-biphenyl]-2-yl)methyl)-3-methylpiperazin-1-yl) benzamide], the pIC50 is below 6.00 in assay [1], 6.31 in assay [2] and below 7.00 in assay [3].

For `C[C@@H]1CN(CC2=C(c3ccc(Cl)cc3)CCC(C)(C)C2)CCN1c1ccc(C(=O)NS(=O)(=O)c2cc(F)c(NCC3CCOCC3)c([N+](=O)[O-])c2)c(Oc2cnc3[nH]ccc3c2)c1` [Example 43, (R)-2-((1H-pyrrolo[2,3-b]pyridin-5-yl)oxy)-4-(4-((4′-chloro-4,4-dimethyl-3,4,5,6-tetrahydro[1,1′-biphenyl]-2-yl)methyl)-2-methylpiperazin-1-yl)-N-((3-fluoro-5-nitro-4--(((tetrahydro-2H-pyran-4-yl)methyl)amino)phenyl)sulfonyl)benzamide], the pIC50 in assay [1] was below 6.00; in assay [2], 6.79; in assay [3], 8.20.

Take `C[C@H]1CN(c2ccc(C(=O)NS(=O)(=O)c3cc(F)c(NC[C@@H]4COCCO4)c([N+](=O)[O-])c3)c(Oc3cnc4[nH]ccc4c3)c2)CCN1CC1=C(c2ccc(Cl)cc2)CC(C)(C)CC1` [Example 56, N-((4-((((R)-1,4-dioxan-2-yl)methyl)amino)-3-fluoro-5-nitrophenyl)sulfonyl)-2-((1H-pyrrolo[2,3-b]pyridin-5-yl)oxy)-4-((S)-4-((4′-chloro-5,5-dimethyl-3,4,5,6-tetrahydro-[1,1′-biphenyl]-2-yl)methyl)-3-methylpiperazin-1-yl) benzamide]: the pIC50 is below 6.00 in assay [1], 6.65 in assay [2] and 7.09 in assay [3].

On to `C[C@@H]1CN(c2ccc(C(=O)NS(=O)(=O)c3cc(F)c(NCC4CCOCC4)c([N+](=O)[O-])c3)c(Oc3cnc4[nH]ccc4c3)c2)CCN1CC1=C(c2ccc(Cl)cc2)CCC2(CC2)C1` [Example 37], for which the pIC50 in assay [1] was below 6.00; in assay [2] it was 7.66; in assay [3], 8.50.

In the case of `C[C@@H]1CN(c2ccc(C(=O)NS(=O)(=O)c3ccc(NC[C@@H]4COCCO4)c([N+](=O)[O-])c3)c(Oc3cnc4[nH]ccc4c3)c2)CCN1CC1=C(c2ccc(Cl)cc2)CC(C)(C)CC1` [Example 52, N-((4-((((R)-1,4-dioxan-2-yl)methyl)amino)-3-nitrophenyl)sulfonyl)-2-((1H-pyrrolo [2,3-b]pyridin-5-yl)oxy)-4-((R)-4-((4′-chloro-5,5-dimethyl-3,4,5,6-tetrahydro-[1,1′-biphenyl]-2-yl)methyl)-3-methylpiperazin-1-yl) benzamide], the negative logarithm of the IC50 (pIC50) in assay [1] was below 6.00; in assay [2], 8.29; in assay [3], 8.72.

With `C[C@@H]1CN(CC2=C(c3ccc(Cl)cc3)CC(C)(C)CC2)CCN1c1ccc(C(=O)NS(=O)(=O)c2ccc(NCC3CCOCC3)c([N+](=O)[O-])c2)c(Oc2cnc3[nH]ccc3c2)c1` [Example 8, (R)-2-((1H-pyrrolo[2,3-b]pyridin-5-yl)oxy)-4-(4-((4′-chloro-5,5-dimethyl-3,4,5,6-tetrahydro-[1,1′-biphenyl]-2-yl)methyl)-2-methylpiperazin-1-yl)-N-((3-nitro-4-(((tetrahydro-2H-pyran-4-yl)methyl)amino)phenyl)sulfonyl)benzamide], the pIC50 in assay [1] was below 6.00; in assay [2], 8.21; in assay [3] it was 8.34.

Consider `C[C@H]1CCC(CN2CCN(c3ccc(C(=O)NS(=O)(=O)c4cc(F)c(NC[C@H]5COCCO5)c([N+](=O)[O-])c4)c(Oc4cnc5[nH]ccc5c4)c3)C[C@H]2C)=C(c2ccc(Cl)cc2)C1` [Example 17, N-((4-((((S)-1,4-dioxan-2-yl)methyl)amino)-3-fluoro-5-nitrophenyl)sulfonyl)-2-((1H-pyrrolo[2,3-b]pyridin-5-yl)oxy)-4-((R)-4-(((S)-4′-chloro-5-methyl-3,4,5,6-tetrahydro-[1,1′-biphenyl]-2-yl)methyl)-3-methylpiperazin-1-yl)benzamide], for which the values for the pIC50 in assay [1], in assay [2] and in assay [3] were 6.02, 8.51 and 8.84, respectively.
